Patent US20240247080A1, “GLP1/GIP/NPY2 RECEPTOR TRIPLE AGONISTS” (Boehringer Ingelheim International GmbH, priority 2022, published 2024)
Read-outs that look alike come from different tables or passages of the source. Starred links: 1 amine or outer side, 2 acyl side, 3 side chain; linkers in the order of their positions; H or OH if unused. Non-standard residues stand in square brackets, D forms with d. Groups on a side chain read outwards from the residue. No end group written: not given here. *: point of attachment. C20 diacid = O=C(O)CCCCCCCCCCCCCCCCCCC(=O)*; C18 diacid = O=C(O)CCCCCCCCCCCCCCCCC(=O)*; γGlu = O=C(O)[C@H](CCC(=O)[*:2])N[*:1]; εLys = N[C@@H](CCCCN[*:1])C(=O)[*:2]; AEEA = NCCOCCOCC(=O)O; Aib = CC(C)(N)C(=O)O

Tests used:
Format in all cases: cell-based
Details in all cases: CreLuc reporter gene assay
[1] = molecular target: T1, hGLP1R (Homo sapiens, UniProt P43220); test: hGLP1R CreLuc reporter gene assay in 0.5% and 100% plasma
T1 construct: expressed in transfected cells; host or cells: HEK-293 cells carrying a CRE-luciferase reporter gene
T1 sequence (P43220 24-463): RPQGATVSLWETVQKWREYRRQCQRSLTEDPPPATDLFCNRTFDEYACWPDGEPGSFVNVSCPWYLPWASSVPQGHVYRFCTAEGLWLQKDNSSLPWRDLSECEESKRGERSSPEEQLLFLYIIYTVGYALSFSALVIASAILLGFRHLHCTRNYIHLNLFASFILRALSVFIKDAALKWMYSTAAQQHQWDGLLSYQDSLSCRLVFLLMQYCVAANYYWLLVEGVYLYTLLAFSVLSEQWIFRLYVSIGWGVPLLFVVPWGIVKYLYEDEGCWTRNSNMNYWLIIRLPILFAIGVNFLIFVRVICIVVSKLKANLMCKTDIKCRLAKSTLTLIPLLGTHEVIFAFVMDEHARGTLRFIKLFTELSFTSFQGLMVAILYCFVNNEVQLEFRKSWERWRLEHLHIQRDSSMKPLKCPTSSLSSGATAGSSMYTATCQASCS
How it was run: (§1)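 HEK-293 cells co-expressing GLP-1 or NPY2 receptor and CHO cells expressing GIP receptor, each carrying a CRE-driven luciferase reporter, were stimulated with peptides for 4 hours at 37 °C. Luminescence was read after Bright-Glo addition. EC50 came from 8-point, four-decade curves fitted by variable-slope non-linear regression.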

[2] = molecular target: T2, hNPY2R (Homo sapiens, UniProt P49146); test: hNPY2R CreLuc reporter gene assay in 0.5% and 100% plasma
T2 construct: expressed in transfected cells; host or cells: HEK-293 cells carrying a CRE-luciferase reporter gene
T2 sequence (P49146 1-381): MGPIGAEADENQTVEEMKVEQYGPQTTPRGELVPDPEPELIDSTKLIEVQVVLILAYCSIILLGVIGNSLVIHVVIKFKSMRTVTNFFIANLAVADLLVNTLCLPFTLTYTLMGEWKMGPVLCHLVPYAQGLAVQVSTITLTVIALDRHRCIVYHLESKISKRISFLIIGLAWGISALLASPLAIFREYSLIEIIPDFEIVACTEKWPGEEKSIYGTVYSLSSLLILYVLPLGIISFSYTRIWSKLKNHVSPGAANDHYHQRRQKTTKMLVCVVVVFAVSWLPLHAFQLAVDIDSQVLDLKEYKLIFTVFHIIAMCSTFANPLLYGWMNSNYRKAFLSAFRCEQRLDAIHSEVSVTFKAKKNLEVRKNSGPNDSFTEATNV
Source text: Example 1: hGLPR/hGIPR/hNPY2R CreLuc Assay in 0.5% and 100% Plasma
CHO and HEK-293 recombinant cell lines express a luciferase reporter gene under control of the cAMP responsive element (CRE). As a second recombinant protein the GLP-1 and NPY2 receptors were expressed in the reporter gene HEK cells, and the GIP receptor was expressed in the reporter gene CHO cells, respectively. Stimulation of these recombinant cells with an agonist leads to an increase of intracellular cAMP levels. In the presence of cAMP, the transcription factor CRE binding protein (CREB) binds to the CRE and to the CREB binding protein (CBP), which leads to transcription of the luciferase reporter gene. Peptides upon serial-dilution in 100% DMSO were transferred into 384-well assay plates with 5 μl pre-dispensed assay buffer (1×HBSS, 20 mM HEPES, pH7.4 supplemented with 0.5% human plasma) using acoustic dispensing on a Labcyte ECHO. Cryo-preserved transgenic reporter gene cells were thawed in assay buffer. 20 μl (10.000 cells/well) were added to the plate with the peptides and incubated for 4 hours at 37° C. in a humidified incubator. Following incubation, assay plates are equilibrated to room temperature, followed by addition of 25 μl of Bright-GIo™ Luciferase reagent, incubation at room temperature for 10 minutes and analysis of luminescence (Envision Reader). Concentration response evaluation of compounds was performed with 8 concentrations of peptides (covering four decades). EC50 values were calculated by non-linear regression using sigmoid concentration-response with variable slope. The same assays were run in the presence of 100% plasma with no additional buffer constituents.

[3] = molecular target: T3, hGIPR (Homo sapiens, UniProt P48546); test: hGIPR CreLuc reporter gene assay in 0.5% and 100% plasma
T3 construct: expressed in transfected cells; host or cells: CHO cells carrying a CRE-luciferase reporter gene
T3 sequence (P48546 22-466): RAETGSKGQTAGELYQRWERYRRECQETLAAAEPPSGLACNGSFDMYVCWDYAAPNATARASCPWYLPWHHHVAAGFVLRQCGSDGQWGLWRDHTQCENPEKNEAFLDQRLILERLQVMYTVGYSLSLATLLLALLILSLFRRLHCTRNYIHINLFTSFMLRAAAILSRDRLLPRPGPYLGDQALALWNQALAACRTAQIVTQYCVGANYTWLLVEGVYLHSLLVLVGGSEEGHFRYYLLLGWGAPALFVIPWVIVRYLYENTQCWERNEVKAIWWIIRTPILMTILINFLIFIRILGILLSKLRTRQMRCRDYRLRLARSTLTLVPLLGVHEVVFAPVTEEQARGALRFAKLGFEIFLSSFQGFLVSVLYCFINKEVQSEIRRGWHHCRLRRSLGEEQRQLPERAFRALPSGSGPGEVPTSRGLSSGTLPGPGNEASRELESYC
How it was run: as §1

[4] = 0.5% human plasma, read-out: hGLP1R 0.5% hP
[5] = 0.5% human plasma, read-out: hNPY2R 0.5% hP
[6] = 0.5% human plasma, read-out: hGIPR 0.5% hP
[7] = 100% human plasma, read-out: hNPY2R 100% hP
[8] = 100% human plasma, read-out: hGIPR 100% hP

Substance | EC50 [1, 4] | EC50 ([1]; 100% human plasma, read-out: hGLP1R 100% hP) | EC50 [2, 5] | EC50 [3, 6] | EC50 [2, 7] | EC50 [3, 8]
H-Y[Aib]EGTFTSDYSI[Aib]LEKQAQ[Aib]AFVQWLIK([εLys-γGlu-γGlu-γGlu-γGlu-γGlu-C20 diacid])GGPEEPASLRHYYNWLTRQRY-NH2 [Compound 67, Y-Aib-E-G-T-F-T-S-D-Y-S-I-Aib-L-E-K-Q-A-Q-Aib-A-F-V-Q-W-L-I-K(1,3)-GGPEEPASLRHYYNWLTRQRY-NH2.C20DA-gGlu-gGlu-gGlu-gGlu-gGlu-eLys(1,2)] |  |  | 13.7 nM | 0.29 nM | 78.9 nM | 
H-Y[Aib]EGTFTSDYSI[Aib]LEKQAE[Aib]AFVEWLIK([AEEA-AEEA-γGlu-γGlu-γGlu-γGlu-C18 diacid])GGPSEGASLRHYYNWLTRQRY-NH2 [Compound 251, Y-Aib-E-G-T-F-T-S-D-Y-S-I-Aib-L-E-K-Q-A-E-Aib-A-F-V-E-W-L-I-K(1,3)-GGPSEGASLRHYYNWLTRQRY-NH2.C18DA-gGlu-gGlu-gGlu-gGlu-OEG-OEG(1,2)] |  |  | 20.6 nM | 0.16 nM | 48.7 nM | 0.98 nM
H-Y[Aib]EGTFTSDYSI[Aib]LEKQAQ[Aib]AFVEWLIK([εLys-γGlu-γGlu-γGlu-γGlu-γGlu-γGlu-C20 diacid])GGPSSAASLRHYYNWLTRQRY-NH2 [Compound 98, Y-Aib-E-G-T-F-T-S-D-Y-S-I-Aib-L-E-K-Q-A-Q-Aib-A-F-V-E-W-L-I-K(1,3)-GGPSSAASLRHYYNWLTRQRY-NH2.C20DA-gGlu-gGlu-gGlu-gGlu-gGlu-gGlu-eLys(1,2)] | 0.31 nM |  | 15.1 nM |  |  | 
H-Y[Aib]EGTFTSDYSI[Aib]LE[Aib]KAQ[Aib]EFVEWLIK([εLys-γGlu-γGlu-γGlu-γGlu-γGlu-γGlu-C20 diacid])GGPSSGASLRHYYNWLTRQRY-NH2 [Compound 24, Y-Aib-E-G-T-F-T-S-D-Y-S-I-Aib-L-E-Aib-K-A-Q-Aib-E-F-V-E-W-L-I-K(1,3)-GGPSSGASLRHYYNWLTRQRY-NH2.C20DA-gGlu-gGlu-gGlu-gGlu-gGlu-gGlu-eLys(1,2)] |  |  | 26.8 nM |  |  | 
H-Y[Aib]EGTFTSDYSI[Aib]LAAAAQ[Aib]AFVEWLIK([εLys-γGlu-γGlu-γGlu-γGlu-γGlu-γGlu-C20 diacid])GGPSSGASLRHYYNWLTRQRY-NH2 [Compound 20, Y-Aib-E-G-T-F-T-S-D-Y-S-I-Aib-L-A-A-A-A-Q-Aib-A-F-V-E-W-L-I-K(1,3)-GGPSSGASLRHYYNWLTRQRY-NH2.C20DA-gGlu-gGlu-gGlu-gGlu-gGlu-gGlu-eLys(1,2)] |  |  | 19.1 nM | 0.93 nM |  | 
H-Y[Aib]EGTFTSDYSI[Aib]LEKQAQ[Aib]AFVEWLIK([εLys-γGlu-γGlu-γGlu-γGlu-γGlu-γGlu-C20 diacid])GGPRYYASLRHYYNWLTRQRY-NH2 [Compound 62, Y-Aib-E-G-T-F-T-S-D-Y-S-I-Aib-L-E-K-Q-A-Q-Aib-A-F-V-E-W-L-I-K(1,3)-GGPRYYASLRHYYNWLTRQRY-NH2.C20DA-gGlu-gGlu-gGlu-gGlu-gGlu-gGlu-eLys(1,2)] |  |  | 13.6 nM | 0.48 nM | 40.5 nM | 
H-Y[Aib]EGTFTSDYSI[Aib]LEKQAQ[Aib]EFVEWLIK([AEEA-AEEA-γGlu-γGlu-γGlu-C20 diacid])GGPSEGASLRHYYNWLTRQRY-NH2 [Compound 273, Y-Aib-E-G-T-F-T-S-D-Y-S-I-Aib-L-E-K-Q-A-Q-Aib-E-F-V-E-W-L-I-K(1,3)-GGPSEGASLRHYYNWLTRQRY-NH2.C20DA-gGlu-gGlu-gGlu-OEG-OEG(1,2)] |  |  | 19.3 nM | 0.38 nM |  | 1.52 nM
H-Y[Aib]EGTFTSDYSI[Aib]LEKQAQ[Aib]AFVEWLIK([εLys-γGlu-γGlu-γGlu-γGlu-γGlu-γGlu-C20 diacid])GGPSEGVSLRHYYNWLTRQRY-NH2 [Compound 241, Y-Aib-E-G-T-F-T-S-D-Y-S-I-Aib-L-E-K-Q-A-Q-Aib-A-F-V-E-W-L-I-K(1,3)-GGPSEGVSLRHYYNWLTRQRY-NH2.C20DA-gGlu-gGlu-gGlu-gGlu-gGlu-gGlu-eLys(1,2)] |  |  | 16.7 nM | 0.69 nM |  | 4.36 nM

These reach a lower EC50 [2, 5]. Values come first.

EC50 [1, 4] | EC50 ([1]; 100% human plasma, read-out: hGLP1R 100% hP) | EC50 [2, 5] | EC50 [3, 6] | EC50 [2, 7] | EC50 [3, 8] | Substance
 |  | 12.9 nM | 0.53 nM | 24.6 nM |  | H-Y[Aib]EGTFTSDYSI[Aib]LEKQAQ[Aib]AFVQWLIK([εLys-γGlu-γGlu-γGlu-γGlu-γGlu-γGlu-C20 diacid])GGPSEYVSLRHYYNWLTRQRY-NH2 [Compound 78, Y-Aib-E-G-T-F-T-S-D-Y-S-I-Aib-L-E-K-Q-A-Q-Aib-A-F-V-Q-W-L-I-K(1,3)-GGPSEYVSLRHYYNWLTRQRY-NH2.C20DA-gGlu-gGlu-gGlu-gGlu-gGlu-gGlu-eLys(1,2)]
 |  | 12.8 nM | 0.46 nM | 43.4 nM | 2.43 nM | Y[Aib]EGTFTSDYSI[Aib]LEKQAE[Aib]AFVQWLIK([AEEA-AEEA-γGlu-γGlu-γGlu-γGlu-C20 diacid])GGPSEGASLRHYYNWLTRQRY-NH2 [Compound 219, Y-Aib-E-G-T-F-T-S-D-Y-S-I-Aib-L-E-K-Q-A-E-Aib-A-F-V-Q-W-L-I-K(1,3)-GGPSEGASLRHYYNWLTRQRY-NH2.C20DA-gGlu-gGlu-gGlu-gGlu-OEG-OEG(1,2)]
 |  | 12.4 nM | 0.5 nM |  | 2.94 nM | H-Y[Aib]EGTFTSDYSI[Aib]LEKQAQ[Aib]EFVEWLIK([εLys-γGlu-γGlu-γGlu-γGlu-γGlu-γGlu-C20 diacid])GGPSSGASLRHYYNWLTRQRY-NH2 [Compound 215, Y-Aib-E-G-T-F-T-S-D-Y-S-I-Aib-L-E-K-Q-A-Q-Aib-E-F-V-E-W-L-I-K(1,3)-GGPSSGASLRHYYNWLTRQRY-NH2.C20DA-gGlu-gGlu-gGlu-gGlu-gGlu-gGlu-eLys(1,2)]
0.1 nM | 2.55 nM | 11.6 nM |  |  |  | Y[Aib]EGTFTSDYSI[Aib]LEKQAQ[Aib]AFVEWLIK([γGlu-γGlu-γGlu-γGlu-γGlu-C20 diacid])GGPSSGASLRHYYNWLTRQRY-NH2 [Compound 238, Y-Aib-E-G-T-F-T-S-D-Y-S-I-Aib-L-E-K-Q-A-Q-Aib-A-F-V-E-W-L-I-K(1,3)-GGPSSGASLRHYYNWLTRQRY-NH2.C20DA-gGlu-gGlu-gGlu-gGlu-gGlu(1,2)]
0.74 nM |  | 11.2 nM |  | 56.3 nM |  | H-Y[Aib]EGTFTSDYSI[Aib]LEKQAQ[dD]AFVEWLIK([εLys-γGlu-γGlu-γGlu-γGlu-γGlu-γGlu-C20 diacid])GGPSSGASLRHYYNWLTRQRY-NH2 [Compound 211, Y-Aib-E-G-T-F-T-S-D-Y-S-I-Aib-L-E-K-Q-A-Q-DAsp-A-F-V-E-W-L-I-K(1,3)-GGPSSGASLRHYYNWLTRQRY-NH2.C20DA-gGlu-gGlu-gGlu-gGlu-gGlu-gGlu-eLys(1,2)]
 |  | 11.1 nM | 0.27 nM |  |  | H-Y[Aib]EGTFTSDYSI[Aib]LEKQAQ[Aib]EFVEWLIK([AEEA-AEEA-γGlu-γGlu-γGlu-C18 diacid])GGPESGASLRHYYNWLTRQRY-NH2 [Compound 81, Y-Aib-E-G-T-F-T-S-D-Y-S-I-Aib-L-E-K-Q-A-Q-Aib-E-F-V-E-W-L-I-K(1,3)-GGPESGASLRHYYNWLTRQRY-NH2.C18DA-gGlu-gGlu-gGlu-OEG-OEG(1,2)]
